{"source": "patent US20260097111A1", "about": "“ETHER LIPIDS FOR HYPERACTIVATION OF MAMMALIAN DENDRITIC CELLS” (priority 2022, published 2026)", "key": {"human moDC": {"test_system": "human moDC", "test": "IL-1β ELISA, human moDC treated with R848, DGP, MCC950", "format": "cell-based", "procedure": "Monocyte Isolation, Storage, and Differentiation into moDC. Human leukapheresis blood products were freshly obtained from AllCells via same day or overnight shipping at 4° C. Miltenyi StraightFrom Leukopak CD14 MicroBead isolation kits were used according to manufacturer instructions to isolate CD14+ monocytes. Briefly, leukopaks ranging in quantity from 5×10^9 to 1×10^10 total nucleated cells were evenly aliquoted into 50 mL conical tubes. Cells were incubated with CD14 microbeads and then loaded on the MultiMACS using the program “Possel2”. After washing out the negative population, CD14+ cells were eluted from the columns and counted. An aliquot of monocytes was used to stain for purity of cells to ensure that isolated live cells were […] CD11c+CD14+ by flow cytometry. […] Vials were placed in CoolCell freezing containers and placed in a −80° C. freezer and stored no longer than 1 week. Frozen cells were transferred for long-term storage to the vapor phase of a liquid nitrogen freezer until use.\nTo differentiate monocytes into moDC, vials of cells were taken out of the liquid nitrogen freezer and quickly thawed in a 37° C. water bath. Cells were diluted ten-fold in warmed R10++ media containing 50 units/mL benzonase. R10++ media was composed of RPMI 1640 media containing 10% fetal bovine serum, 50 units/mL penicillin, […] streptomycin, 2 mM L-glutamine, 1 mM sodium pyruvate, […] beta-mercaptoethanol, 10 mM HEPES, and 1% Gibco MEM non-essential amino acids. After gentle mixing by inversion of tubes, cells were incubated at 37° C. for 10 min. Cells were pelleted at 400×g for 5 min and supernatant was aspirated. Cells were resuspended in R10++ media and counted on the MoxiGo by diluting an aliquot in PBS containing a final concentration of 2.5 μg/mL propidium iodide. Cells were plated in T75 culture flasks at 3-6×10^7 cells per flask in a total of 20 mL R10++ media containing a final concentration of 50 ng/mL GM-CSF and 25 ng/mL IL-4. Three days after the start of culture, an additional 10 mL R10++ containing 50 ng/mL GM-CSF and 25 ng/mL IL-4 was added to each flask.\nSix days after start of differentiation. R10++ media containing cells were placed into 50 mL conical tubes. Flasks were washed with an additional 10 mL PBS and also collected. […] Cells were resuspended in R10++ media and counted on the MoxiGo by diluting an aliquot in PBS containing a final concentration of 2.5 μg/mL propidium iodide. Cells were then adjusted to 1×10^6 cells/mL in R10++ media.\nmoDC Treatment. Human moDC were plated at 1×10^5 cells/well in 96-well flat-bottom tissue culture plates in R10++ media by adding 100 μL of cells per well. To each well, a 25 μL solution of R10++ containing 400 ng/mL GM-CSF and 200 ng/mL IL-4 was added.\nLyophilized R848 stocks were prepared as described above and frozen at −80° C. An aliquot of frozen R848 was thawed and further diluted to 11.4 μM in R10++ (4 μg/mL R848). Cell culture conditions receiving R848 treatment had 50 μL added to wells. For wells not receiving R848, 50 μL R10++ was added to wells. Lyophilized MCC950 was prepared as described above and stored at −20° C. MCC950 was further diluted to 40 uM in a prepared R10++ solution containing 11.4 μM R848. Cells receiving R848 and MCC950 treatment had 50 μL added to wells. Final concentrations of R848 and MCC950 in a total 200 μL volume were respectively 2.85 μM and 10 μM.\nA4.44% solution of KP407 dissolved in sterile, distilled water was prepared at a temperature of 4° C. […]"}, "FLT3L-DCs": {"test_system": "FLT3L-DCs", "test": "Migration of injected FLT3L-DCs to skin draining lymph nodes", "format": "in vivo, mice", "details": "DCs stimulated with R848 1 μg/mL and 41 uM lipid, injected SC, 24 hours; FIG. 5; listed as DGP", "procedure": "Murine bone marrow-derived FLT3L-DCs hyperactivation for migration assays. BMDCs were harvested on day 8 post differentiation, washed with PBS, and re-plated in FLT3L-containing I10 at a concentration of 1×10^6 cells/mL. For DC hyperactivation, 500 μl of R848 was added at a final concentration of 1 μg/mL, and 500 μl of lipids (DGPC (Compound 1), DGP (Compound 2), DHC (Compound 7) or DHMC (Compound 8) or 22:0 lyso PC) prepared in 4% KP407 was diluted to a final concentration of 41 uM. Cells were incubated for 24 hours at 37° C. on a tube rotator. Twenty-four hours post-stimulation, cells were washed with PBS and stained with CFSE (1:1000) for 30 min at 37° C. in the dark. DCs were then counted and 1.10×10^6 cells were injected subcutaneously (SC) in 100 ul per mouse. 24 hours post-injection, the skin draining lymph nodes (dLN) were dissected. A single cell suspension was prepared, and cells were stained in PBS with Live Dead Fixable dye (ThermoFisher) for 20 min at 4° C. Cells were then washed again and stained for 20 min at 4° C. in MACS buffer (PBS with 1% FCS and 2 mM EDTA) containing the following fluorescently conjugated antibodies: anti-CD11c and anti-I-A/I-E (MHC-II). […] Data were analyzed using FlowJo software (Tree Star). […]"}}, "note": "“Also recorded” adds a separate entry of the source."}
{"smiles": "CCCCCCCCCCCCCCCCCCCCCCOC[C@@H](O)COP(=O)(O)O", "note": "[Compound 2, 1-docosyl-sn-glycerol-3-phosphate]", "values": [{"measurement": "concentration of DGP sufficient in combination with R848 to significantly increase IL-1β secretion", "setting": "human moDC; donor HD94", "value": 20.6, "unit": "µM"}, {"measurement": "concentration of DGP sufficient in combination with R848 to significantly increase IL-1β secretion", "setting": "human moDC; donor HD95", "value": 82.5, "unit": "µM"}, {"measurement": "concentration of DGP sufficient in combination with R848 to significantly increase IL-1β secretion", "setting": "human moDC; donors HD93 and HD96", "value": "at least 41.3 uM"}, {"measurement": "IL-1β", "setting": "human moDC; without addition of R848, DGP 0-82.5 μM, overnight, FIG. 21", "value": "less than 100 μg/mL"}, {"measurement": "DC migration from the skin to the dLN", "setting": "FLT3L-DCs", "value": "significantly enhanced DC migration from the skin to the dLN; also recorded: migration activity was significantly higher than DGPC (Compound 1)"}]}
